Common to all, as to assay type: cell-based
The test system of one assay is A. Niger. Put plainly: Minimum inhibitory concentration (MIC) versus A. niger. The method, then:
In the instance of anti-fungal activity, detailed analysis has been carried out with a prototypical pathogen, Trichophytone mentagrophytes. The testing was conducted and illustrates the activity of the ACQA agents that are the subject of this invention. A Time Kill (D-Value) study (ASTM protocol #1891-97 Standard Guide For Determination Of A Survival Curve For Antimicrobial Agents Against Selected Microorganisms And Calculation Of A D-value And Concentration Coefficient) was carried out to screen for the antifungal activity of glycopyrrolate (3%). Testing was done to determine the speed at which the product kills a representative test organism, which was Trichophyton mentagrophytes, a representative dermatophyte-causing species. Determination of the minimum inhibitory concentration (MIC) versus A. Niger, a prototypical fungi was also initiated. The vehicle was 65% water/35% ethanol.
(§1) Additional scientific investigation was completed to verify the drug class aspects of this invention. […] Specifically, Mepenzolate bromide and Ipratropium bromide were evaluated utilizing standardized microbiological test methods for minimum inhibitory concentration (MIC) versus A. niger and C. albicans. MICs in the range of 1% were observable, confirming the antifungal activity of this class of compound. Insofar as ipratropium is used for intranasal purposes, it is apparent that the discovered property is not predicted by any known attribute of this class of drugs.

A further assay relates to C. albicans. Put plainly: Minimum inhibitory concentration (MIC) versus C. albicans. The method, then:
as §1

The subject of assay [1] is Staphylococcos epidermidis. Put plainly: Time Kill (D-Value) study, antibacterial. The note with it: glycopyrrolate 3%, vehicle 65% water/35% ethanol. The source says:
(§2) In Vitro and in vivo tests can be used to show the efficacy of antimicrobial products. With appropriate controls and methods In Vitro tests are applicable to all products. The time-to-kill test is used to determine the killing kinetics and activity spectrum of antimicrobials. In this example, the test was, as is usual, performed in suspension. The principle is to place the product or agent in contact with an inoculum for a specified period of time. At the end of the contact time, the mixture is inactivated by dilution into neutralizing broth. Serial dilutions in appropriate broth are performed and the number of surviving bacterial observed on solid culture media. It is general practice to test agents so that the final concentration is representative of the use concentration of the product.
(§3) Similarly, In Vitro and In Vivo tests can be used to show the efficacy of antimicrobial products against bacterial species. Such a Time Kill (D-Value) study was conducted and illustrates the antibacterial activity of the ACQA agents that are the subject of this invention. In this case, the study was carried out to screen for the antibacterial activity of glycopyrrolate (3%) and triclosan (0.3%). Testing was done to determine the speed and MIC at which the product kills representative test organisms, which were Micrococcus luteous (syn ATTC 9341 changed to Kocuria rhizophila), Staphylococcos epidermidis and Corynebacterium vitaeruminis, representative odor-causing species. Once again, the vehicle was 65% water/35% ethanol.

Assay [2] deals with Corynebacterium vitaeruminis. Put plainly: Time Kill (D-Value) study, antibacterial. The note with it: glycopyrrolate 3%, vehicle 65% water/35% ethanol.
From the text: as §2, §3

Assay [3] concerns Micrococcus luteous (syn ATTC 9341 changed to Kocuria rhizophila). Put plainly: Time Kill (D-Value) study, antibacterial. The note with it: glycopyrrolate 3%, vehicle 65% water/35% ethanol.
From the text: as §2, §3

In assay [4] the test system is Trichophyton mentagrophytes. Put plainly: Time Kill (D-Value) study, antifungal. The note with it: glycopyrrolate 3%, vehicle 65% water/35% ethanol.
From the text: as §2
In the instance of anti-fungal activity, detailed analysis has been carried out with a prototypical pathogen, Trichophytone mentagrophytes. The testing was conducted and illustrates the activity of the ACQA agents that are the subject of this invention. A Time Kill (D-Value) study (ASTM protocol #1891-97 Standard Guide For Determination Of A Survival Curve For Antimicrobial Agents Against Selected Microorganisms And Calculation Of A D-value And Concentration Coefficient) was carried out to screen for the antifungal activity of glycopyrrolate (3%). […]

Take `CC(C)[N+]1(C)[C@@H]2CC[C@H]1CC(OC(=O)C(CO)c1ccccc1)C2.[Br-]` (stereo partly drawn) [Ipratropium bromide]: the “MIC versus A. niger” value in the assay with A. Niger was approximately 1%. Besides, the “MIC versus C. albicans” value in the assay with C. albicans is on record as approximately 1%.

For the molecule `C[N+]1(C)CCCC(OC(=O)C(O)(c2ccccc2)c2ccccc2)C1` (stereo not drawn) [Mepenzolate bromide], the “MIC versus A. niger” value against A. Niger is on record as approximately 1%. In the assay on C. albicans, the “MIC versus C. albicans” value was approximately 1%.

Consider `C[N+]1(C)CCC(OC(=O)C(O)(c2ccccc2)C2CCCC2)C1` (stereo not drawn) [glycopyrrolate], for which the “time to kill in D Value study” value in assay [1], in assay [2] and in assay [3] was 4 min in each case. Further, the “MIC versus A. niger” value against A. Niger is reported as more than 0.1%. In addition, the “time to antifungal effect over and above vehicle in D Value study” value in assay [4] worked out at 24 min.
